From paper PMC8316980 (ACS chemical neuroscience, 2019) come the findings set out here.

For the assay, the target named is T1, MD-2 (myeloid differentiation protein 2) (Homo sapiens, UniProt Q9Y6Y9).
T1 sequence (Q9Y6Y9 19-160): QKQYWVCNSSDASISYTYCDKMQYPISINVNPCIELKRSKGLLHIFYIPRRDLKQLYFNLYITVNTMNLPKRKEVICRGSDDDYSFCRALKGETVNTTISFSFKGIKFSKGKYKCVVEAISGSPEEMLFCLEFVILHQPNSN
Kind of assay: intrinsic fluorescence quenching titration. In kind it is binding.

What is called Kd is the concentration at which binding is half-saturated. Consider `CN[C@@H](C)Cc1ccccc1` [methamphetamine], for which the Kd worked out at 6.7 ± 0.6 µM.
